Measured values from patent publication US12371438B2, “Ginkgolide B derivative and salt thereof, preparation method therefor and use thereof” (HUILING JINXIN (SHANGHAI) PHARMACEUTICAL TECHNOLOGY CO., LTD, priority 2019, dated 2025).
“Also recorded” adds a separate entry of the source. Where two headings read alike, the source gives them in different places.

Legend:
platelet aggregation = experiment: In vitro anti-platelet aggregation activity evaluation (PAF-induced, platelet-rich plasma); assay type: cell-based, New Zealand white rabbits; conditions: for activity at 1 µM: Oryctolagus cuniculus, Platelet, read-out: Platelet aggregation rate (%, 1 μM); for inhibitory effect on platelet aggregation in vitro (in words): 1 μM, compared with Ginkgolide B
Procedure: Experimental method: New Zealand white rabbits were anesthetized with sodium pentobarbital (2%, 2 mL/kg), about 40 mL of blood was obtained by abdominal aortic puncture, and the supernatant was collected as platelet-rich serum (PRP) after centrifugation at 1000 rpm/min for 10 min, the remaining blood was centrifuged at 4000 rpm/min for 10 min, and the supernatant was collected as platelet-poor serum (PPP); blank control group: 100 μL PRP+100 μL normal saline; drug group: 100 μL PRP+100 μL 0.05% DMSO dissolved drug (Ginkgolide B was positive control group), and the final drug concentration was 1 μM.

[1] = tested on: platelet aggregation in SD rats; experiment: Anticoagulant activity in SD rats (ADP-induced maximum platelet aggregation rate after gavage); assay type: in vivo; conditions: for Average maximum platelet aggregation rate (%): 50 mg/kg by gavage once a day for 3 days, ADP inducer, PAGM within 5 min; for anti-aggregation activity on platelet aggregation in SD rats (in words): 50 mg/kg, n=10, compared with Ginkgolide B
Procedure: Experimental method: Rats were randomly divided into 10 rats in each group, and each group was given the corresponding test drug (50 mg/kg) by gavage after weighing, once a day for 3 days.
150 μL of PRP in each group was sucked and added to the 96-well plate (adjusted to zero by PPP), and ADP inducer was added, the absorbance value A1 was measured at the wavelength of 650 nm in the microplate reader, which was the absorbance value of each group at 0 min; the oscillation mode of the microplate reader was turned on, and the absorbance value A2 was detected again after 5 min, which was the absorbance value of each group at 5 min. Since the addition of ADP would cause platelet aggregation and change the light permeability, the maximum platelet aggregation rate (PAGM) within 5 min was measured according to this principle. Maximum platelet aggregation rate(PAGM)=(A1−A2)/A1×100

[2] = tested on: acute cerebral ischemia in SD rats; experiment: Anti-acute cerebral ischemia activity (middle cerebral artery electrocoagulation, TTC staining); assay type: in vivo
Procedure: At this time, a relatively straight blood vessel with few branches can be seen through the dura mater, that is, the middle cerebral artery. […] The temporal muscle and skin were sutured in turn, and then the rat was administered by gavage (50 mg/kg). After the rats were awakened, they were put back into their cages and continued to be reared for 24 h.
The brain slices were stained in 1% TTC dye solution (incubated at 37° C. in the dark for about 5-10 min), the infarcted area of brain slices after staining was white, while the non-infarcted area was rose red; after staining was completed, the brain slices were moved to 10% formaldehyde solution and kept away from light for 24 hours, finally, a digital camera was used to take pictures, the areas of frontal and reverse infarcted areas and non-infarcted areas were measured by image analysis software (ImageJ, version: 1.4.3.67), and the ratio of infarcted areas in the total infarcted cerebral hemisphere was calculated.

[3] = 1 μM drug, PAF-induced, rabbit PRP, corrected to blank = 100, n=5
[4] = SD rats, 50 mg/kg by gavage after occlusion, 24 h, n=10, 50 mg/kg
[5] = SD rats, 50 mg/kg by gavage after occlusion, 24 h, n=10
[6] = SD rats, 50 mg/kg, n=10, compared with model group / Ginkgolide B, 50 mg/kg

## CC1C(=O)O[C@H]2[C@H](O)[C@@]34C5C[C@@H](C(C)(C)C)C36[C@@H](OC(=O)[C@@H]6OCCOCCOCC(=O)O)O[C@@]4(C(=O)O5)[C@@]12O (some centres unmarked) [Embodiment 9, 2-(Ginkgolide B-10-oxyethoxyethoxy)acetic Acid]
Platelet aggregation; [3]
  activity at 1 µM: 35%

## 2-(Ginkgolide B-10-oxy)diethylamine Acetate [Embodiment 16]
Platelet aggregation; [3]
  Platelet aggregation rate (%, 1 μM): 28.87%

## CC1C(=O)O[C@H]2[C@H](O)[C@@]34C5C[C@@H](C(C)(C)C)C36[C@@H](OC(=O)[C@@H]6OC/C=C/C(=O)O)O[C@@]4(C(=O)O5)[C@@]12O (some centres unmarked) [Embodiment 6, 4-(Ginkgolide B-10-oxy)-2-butenoic Acid]
Platelet aggregation; [3]
  activity at 1 µM: 45.7%

## 2-(Ginkgolide B-10-oxy)lysine Acetate [Embodiment 12]
Platelet aggregation; [3]
  Platelet aggregation rate (%, 1 μM): 12.23%
Platelet aggregation
  inhibitory effect on platelet aggregation in vitro (in words): significant activity
[1]; n=10
  Average maximum platelet aggregation rate (%): 22.65%
[1]
  anti-aggregation activity on platelet aggregation in SD rats (in words): particularly significant (P<0.001)
[2]; rat, in vivo, 50 mg/kg
  Average area ratio of hemicerebral infarction (%): 18.83%
  activity for reducing the area ratio of hemicerebral infarction in SD rats (in words): particularly significant (P<0.001); also recorded: significantly better than Ginkgolide B and embodiment 10

## COC(=O)COCCOCCO[C@H]1C(=O)O[C@H]2O[C@]34C(=O)OC5C[C@@H](C(C)(C)C)C21[C@@]53[C@@H](O)[C@@H]1OC(=O)C(C)[C@@]14O (some centres unmarked) [Embodiment 5, 10-O-(methoxyformylmethoxyethoxyethyl) Ginkgolide B]
Platelet aggregation
  activity at 1 µM: 39.3%

## CC1C(=O)O[C@H]2[C@H](O)[C@@]34C5C[C@@H](C(C)(C)C)C36[C@@H](OC(=O)[C@@H]6OCC(=O)O)O[C@@]4(C(=O)O5)[C@@]12O (some centres unmarked) [Embodiment 7, 2-(Ginkgolide B-10-oxy)acetic Acid]
Platelet aggregation; [3]
  Platelet aggregation rate (%, 1 μM): 17.66%
Platelet aggregation
  inhibitory effect on platelet aggregation in vitro (in words): significant activity
[1]; n=10, 50 mg/kg
  Average maximum platelet aggregation rate (%): 35.20%
[2]; [4]
  Average area ratio of hemicerebral infarction (%): 25.14%

## CC1C(=O)OC2C(O)C34C5CC(C(C)(C)C)C36C(OC(=O)C6O)OC4(C(=O)O5)C12O (centres unmarked) [Ginkgolide B]
Platelet aggregation; [3]
  Platelet aggregation rate (%, 1 μM): 63.42%
[1]; n=10
  Average maximum platelet aggregation rate (%): 39.57%
[2]; [5]
  Average area ratio of hemicerebral infarction (%): 26.12%

## 2-(Ginkgolide B-10-oxy)arginine Acetate [Embodiment 13]
Platelet aggregation; [3]
  Platelet aggregation rate (%, 1 μM): 15.66%
Platelet aggregation
  inhibitory effect on platelet aggregation in vitro (in words): significant activity
[1]; n=10
  Average maximum platelet aggregation rate (%): 21.25%
[1]
  anti-aggregation activity on platelet aggregation in SD rats (in words): particularly significant (P<0.001)
[2]; [5]
  Average area ratio of hemicerebral infarction (%): 20.14%
[2]; [6]
  activity for reducing the area ratio of hemicerebral infarction in SD rats (in words): particularly significant (P<0.001)

## 2-(Ginkgolide B-10-oxy)morpholine Acetate [Embodiment 19]
Platelet aggregation; [3]
  Platelet aggregation rate (%, 1 μM): 35.77%

## COC(=O)/C=C/CO[C@H]1C(=O)O[C@H]2O[C@]34C(=O)OC5C[C@@H](C(C)(C)C)C21[C@@]53[C@@H](O)[C@@H]1OC(=O)C(C)[C@@]14O (some centres unmarked) [Embodiment 2, 10-O-(methoxyformylallyl) Ginkgolide B]
Platelet aggregation
  inhibitory effect on platelet aggregation in vitro (in words): significant activity
  activity at 1 µM: 10.3%
[1]; n=10
  Average maximum platelet aggregation rate (%): 32.60%
[2]; [5]
  Average area ratio of hemicerebral infarction (%): 21.56%

## CC1C(=O)O[C@H]2[C@H](O)[C@@]34C5C[C@@H](C(C)(C)C)C36[C@@H](OC(=O)[C@@H]6OCC(=O)OC(C)(C)C)O[C@@]4(C(=O)O5)[C@@]12O (some centres unmarked) [Embodiment 3, 10-O-(tert-butoxyformylmethyl) Ginkgolide B]
Platelet aggregation
  activity at 1 µM: 26.1%

## 2-(Ginkgolide B-10-oxy)ammonium Acetate [Embodiment 11]
Platelet aggregation; [3]
  Platelet aggregation rate (%, 1 μM): 56.53%

## COC(=O)COCCO[C@H]1C(=O)O[C@H]2O[C@]34C(=O)OC5C[C@@H](C(C)(C)C)C21[C@@]53[C@@H](O)[C@@H]1OC(=O)C(C)[C@@]14O (some centres unmarked) [Embodiment 4, 10-O-(methoxyformylmethoxyethyl) Ginkgolide B]
Platelet aggregation; [3]
  activity at 1 µM: 46.7%

## 2-(Ginkgolide B-10-oxyethoxy)N-methyl-D-glucosamine Acetate [Embodiment 21]
Platelet aggregation; [3]
  Platelet aggregation rate (%, 1 μM): 18.64%
Platelet aggregation
  inhibitory effect on platelet aggregation in vitro (in words): significant activity
[1]; n=10
  Average maximum platelet aggregation rate (%): 29.35%
[2]; [5]
  Average area ratio of hemicerebral infarction (%): 22.66%

## CC1C(=O)O[C@H]2[C@H](O)[C@@]34C5C[C@@H](C(C)(C)C)C36[C@@H](OC(=O)[C@@H]6OCC(=O)O)O[C@@]4(C(=O)O5)[C@@]12O (some centres unmarked) [Embodiment 10, 2-(Ginkgolide B-10-oxy)sodium Acetate]
Platelet aggregation; [3]
  Platelet aggregation rate (%, 1 μM): 39.34%
[1]; n=10, 50 mg/kg
  Average maximum platelet aggregation rate (%): 42.20%
[2]; [4]
  Average area ratio of hemicerebral infarction (%): 29.61%

## 2-(Ginkgolide B-10-oxy) n-pentylamine Acetate [Embodiment 17]
Platelet aggregation; [3]
  Platelet aggregation rate (%, 1 μM): 21.90%
Platelet aggregation
  inhibitory effect on platelet aggregation in vitro (in words): significant activity
[1]; n=10
  Average maximum platelet aggregation rate (%): 34.20%
[2]; [5]
  Average area ratio of hemicerebral infarction (%): 25.31%

## 2-(Ginkgolide B-10-oxy)triethylamine Acetate [Embodiment 15]
Platelet aggregation; [3]
  Platelet aggregation rate (%, 1 μM): 24.65%

## COC(=O)CO[C@H]1C(=O)O[C@H]2O[C@]34C(=O)OC5C[C@@H](C(C)(C)C)C21[C@@]53[C@@H](O)[C@@H]1OC(=O)C(C)[C@@]14O (some centres unmarked) [Embodiment 1, 10-O-(methoxyformylmethyl) Ginkgolide B]
Platelet aggregation
  activity at 1 µM: 30%

## 2-(Ginkgolide B-10-oxy)histidine Acetate [Embodiment 14]
Platelet aggregation; [3]
  Platelet aggregation rate (%, 1 μM): 19.74%
Platelet aggregation
  inhibitory effect on platelet aggregation in vitro (in words): significant activity
[1]; n=10
  Average maximum platelet aggregation rate (%): 26.82%
[1]
  anti-aggregation activity on platelet aggregation in SD rats (in words): particularly significant (P<0.001)
[2]; [5]
  Average area ratio of hemicerebral infarction (%): 17.98%
[2]; [6]
  activity for reducing the area ratio of hemicerebral infarction in SD rats (in words): particularly significant (P<0.001)

## CC1C(=O)O[C@H]2[C@H](O)[C@@]34C5C[C@@H](C(C)(C)C)C36[C@@H](OC(=O)[C@@H]6OCCOCC(=O)O)O[C@@]4(C(=O)O5)[C@@]12O (some centres unmarked) [Embodiment 8, 2-(Ginkgolide B-10-oxyethoxy)acetic Acid]
Platelet aggregation; [3]
  activity at 1 µM: 23.7%

## 2-(Ginkgolide B-10-oxy) pyrrolidine Acetate [Embodiment 18]
Platelet aggregation; [3]
  Platelet aggregation rate (%, 1 μM): 26.45%

## 2-(Ginkgolide B-10-oxyethoxy)sodium Acetate [Embodiment 20]
Platelet aggregation; [3]
  Platelet aggregation rate (%, 1 μM): 45.32%
